Results reported in article PMC11411213 (Journal of Molecular Cell Biology, 2024).
Read-outs that look alike come from different tables or passages of the source.

Tests used:
Type in all cases: cell-based
[1] = tested on: SARS-CoV-2 Wuhan variant
[2] = tested on: SARS-CoV-2 Omicron variant
[3] = tested on: SARS-CoV-2 Wuhan variant; assay: microbe, parasite or virus in culture
[4] = tested on: SARS-CoV-2 D614G variant
[5] = tested on: SARS-CoV-2 Alpha variant; assay: microbe, parasite or virus in culture
[6] = tested on: SARS-CoV-2 Delta variant; assay: microbe, parasite or virus in culture
[7] = Severe acute respiratory syndrome coronavirus 2, Calu-3

Row | Molecule | antiviral activity after a single replication cycle (viral titre, in words) [1] | antiviral activity after a single replication cycle (viral titre, in words) [2] | SI (selectivity index) [3] | IC50 [3, 7] [µM] | IC50 [4] [µM] | SI (selectivity index) [5] | IC50 [5, 7] [µM] | SI (selectivity index) [6] | IC50 [6, 7] [µM] | IC50 ([3]; read-out: IC50) [µM] | IC50 ([5]; read-out: IC50) [µM] | IC50 ([6]; read-out: IC50) [µM]
1 | N[C@@H](CCC(=O)N[C@@H](CS)C(=O)NCC(=O)O)C(=O)O [GSH, glutathione] | strong antiviral activity | effective against the Omicron variant | – | – | – | – | – | – | – | – | – | –
2 | O=C(O)c1cc(/N=N/c2ccc(S(=O)(=O)Nc3ccccn3)cc2)ccc1O [Sulfasalazine] | – | – | > 20.51 | 24.4 ± 5.37 | 20.1 ± 2.07 | > 23.87 | 20.9 ± 4.23 | > 20.82 | 24 ± 3.2 | – | – | –
3 | COc1cc(Nc2ncc(F)c(Nc3ccc4c(n3)NC(=O)C(C)(C)O4)n2)cc(OC)c1OC [Tamatinib] | – | – | – | 0.103 ± 0.0027 | 0.115 ± 0.00677 | 69.20 | 0.08295 ± 0.00068 | 57.84 | 0.0992 ± 0.0014 | – | – | –
4 | COc1cc2c(Nc3ccc(Br)cc3F)ncnc2cc1OCC1CCN(C)CC1 [Vandetanib] | – | – | 96.46 | 0.0389 ± 0.0024 | 0.0334 ± 0.00272 | 123.55 | 0.0304 ± 0.00154 | 72.91 | 0.0515 ± 0.00555 | – | – | –
5 | MKI-1 | – | – | – | – | 0.0464 ± 0.00082 | – | – | – | – | 0.0465 ± 0.0018 | 0.0317 ± 0.00418 | 0.0484 ± 0.00207
6 | N-acetyl cysteine [NAC] | strong antiviral activity | effective against the Omicron variant | – | – | – | – | – | – | – | 549 | – | –
7 | imidazole ketone erastin [IKE] | strong antiviral activity | effective against the Omicron variant | – | – | 0.0885 ± 0.105 | – | – | – | – | 0.099 ± 0.00812 | 0.0799 ± 0.00411 | 0.113 ± 0.00371
